# Experimental data reported in article PMC9474474, “Determination of pharmacokinetics and tissue distribution of a novel lutetium-labeled PSMA-targeted ligand, ^177Lu-DOTA-PSMA-GUL, in rats by using LC–MS/MS” (Scientific Reports, 2022).
# Columns and labels:
# [1] = Tissue distribution at steady state after i.v. bolus loading dose plus i.v. infusion in rats; format: in vivo, Male Sprague–Dawley rats; conditions: for plasma concentration at steady state: from 1.5 h of i.v. infusion
# Experimental: Tissue distribution of ^175Lu-DOTA-PSMA-GUL was examined under two different steady-state conditions after i.v. infusion of ^175Lu-DOTA-PSMA-GUL. Two target steady-state plasma concentrations (Css) were set as 3000 and 6000 ng/mL. Rats were surgically cannulated with polyethylene tubing (0.58 mm i.d. and 0.96 mm o.d.; Natume, Tokyo, Japan) in the left jugular vein for blood sampling and femoral vein for i.v. injection and infusion. After one day of recovery, ^175Lu-DOTA-PSMA-GUL was administered by i.v. injection as a loading dose (LD) and i.v. infusion for 3 h to achieve the target Css. The i.v. bolus LD and i.v. infusion rates (K0) were calculated by LD = Css,target·Vss and K0 = Css,target·CL, respectively. […] The calculated LD was 0.60 mg/kg and 1.20 mg/kg for the target Css of 3,000 ng/mL and 6,000 ng/mL, respectively. The calculated K0 was 1.82 mg/h/kg and 3.65 mg/h/kg for the target Css of 3,000 ng/mL and 6,000 ng/mL, respectively.
# Blood samples were collected at 1.5, 2, 2.5, and 3 h during i.v. infusion, and centrifuged at 3,200 × g for 10 min. At the end of the infusion, rats were sacrificed, and brain, lung, heart, spleen, small intestine, stomach, kidney, liver, prostate, fat, muscle, and testis were excised and immediately homogenized in normal saline. All samples were stored at -70 °C until analysis.
# (§1) The plasma concentration–time data were analyzed by non-compartmental method using Phoenix® WinNonlin® (Pharsight, NC, USA). The fraction of ^175Lu-DOTA-PSMA-GUL excreted into urine (Furine) and feces (Ffeces) were calculated by the ratio of the total amount of drug excreted in the urine and feces to the fraction of the dose, respectively. The tissue-to-plasma partition coefficients (KP) were calculated as the tissue-to-plasma concentration ratios.
# [2] = Pharmacokinetics after i.v. bolus injection in rats (non-compartmental analysis, dose proportionality); format: in vivo, Male Sprague–Dawley rats
# Experimental: Freshly prepared ^175Lu-DOTA-PSMA-GUL solution (2.1 mg/mL) was administered by i.v. bolus injection via the penile vein (n = 5–7) at three doses of 1, 2, and 5 mg/kg. Approximately 0.3 mL of the jugular venous blood samples were collected at predetermined times after i.v. injection. Plasma samples were harvested by centrifugation of the blood samples at 3220 × g for 10 min. Urine and feces samples were collected at 4, 8, 12, and 24 h after i.v. injection. All samples were stored at -70 °C until analysis.
# as §1
# Dose proportionality was tested for Cmax, AUCall, and AUCinf based on power model. Assuming the natural logarithm of the pharmacokinetic parameter is linearly related to the natural logarithm of dose as in the following equation: ln(PK parameter) = β0 + β1 × ln(dose), the slope coefficient (β1) and its two-sided 95% confidence intervals (CI) were estimated.
# [3] = steady state, average of both infusion levels
# [4] = i.v. injection, average over doses
structure (smiles),measurement,setting,value
"O=C([O-])CN1CCN(CC(=O)[O-])CCN(CC(=O)[O-])C(Cc2ccc(NC(=S)NCCCC[C@H](NC(=O)N[C@@H](CCC(=O)O)C(=O)O)C(=O)O)cc2)CN(CC(=O)[O-])CC1.[Lu+3] (stereo partly shown) [^175Lu-DOTA-PSMA-GUL, Lutetium labeled-1,4,7,10-tetraazacyclododecane-1,4,7,10-tetraacetic acid (DOTA)-PSMA-GUL]","Concentration, brain","[1]; CSS,target = 3000 ng/mL",BLOQ
same,"Concentration, fat","[1]; CSS,target = 3000 ng/mL",320.68 ± 55.09 ng/g
same,"Concentration, heart","[1]; CSS,target = 3000 ng/mL",645.67 ± 204.29 ng/g
same,"Concentration, kidney","[1]; CSS,target = 3000 ng/mL",7253.09 ± 665.80 ng/g
same,"Concentration, liver","[1]; CSS,target = 3000 ng/mL",949.81 ± 342.61 ng/g
same,"Concentration, lung","[1]; CSS,target = 3000 ng/mL",962.76 ± 287.82 ng/g
same,"Concentration, muscle","[1]; CSS,target = 3000 ng/mL",342.27 ± 188.70 ng/g
same,"Concentration, prostate","[1]; CSS,target = 3000 ng/mL",2433.69 ± 2292.84 ng/g
same,"Concentration, small intestine","[1]; CSS,target = 3000 ng/mL",741.67 ± 507.55 ng/g
same,"Concentration, spleen","[1]; CSS,target = 3000 ng/mL",541.13 ± 52.33 ng/g
same,"Concentration, stomach","[1]; CSS,target = 3000 ng/mL",276.46 ± 95.71 ng/g
same,"Concentration, testis","[1]; CSS,target = 3000 ng/mL",504.17 ± 122.39 ng/g
same,"Tissue to plasma coefficient (KP), fat","[1]; CSS,target = 3000 ng/mL",0.11 ± 0.02
same,"Tissue to plasma coefficient (KP), heart","[1]; CSS,target = 3000 ng/mL",0.23 ± 0.07
same,"Tissue to plasma coefficient (KP), kidney","[1]; CSS,target = 3000 ng/mL",2.56 ± 0.29
same,"Tissue to plasma coefficient (KP), liver","[1]; CSS,target = 3000 ng/mL",0.33 ± 0.11
same,"Tissue to plasma coefficient (KP), lung","[1]; CSS,target = 3000 ng/mL",0.34 ± 0.10
same,"Tissue to plasma coefficient (KP), muscle","[1]; CSS,target = 3000 ng/mL",0.12 ± 0.07
same,"Tissue to plasma coefficient (KP), prostate","[1]; CSS,target = 3000 ng/mL",0.86 ± 0.82
same,"Tissue to plasma coefficient (KP), small intestine","[1]; CSS,target = 3000 ng/mL",0.26 ± 0.18
same,"Tissue to plasma coefficient (KP), spleen","[1]; CSS,target = 3000 ng/mL",0.19 ± 0.02
same,"Tissue to plasma coefficient (KP), stomach","[1]; CSS,target = 3000 ng/mL",0.10 ± 0.04
same,"Tissue to plasma coefficient (KP), testis","[1]; CSS,target = 3000 ng/mL",0.18 ± 0.04
same,"Concentration, plasma","[1]; CSS,target = 3000 ng/mL, LD 0.60 mg/kg, infusion 1.82 mg/h/kg",2845.62 ± 111.43 ng/mL
same,"Concentration, brain","[1]; CSS,target = 6000 ng/mL",BLOQ
same,"Concentration, fat","[1]; CSS,target = 6000 ng/mL",406.59 ± 77.17 ng/g
same,"Concentration, heart","[1]; CSS,target = 6000 ng/mL",737.57 ± 453.10 ng/g
same,"Concentration, kidney","[1]; CSS,target = 6000 ng/mL","14,455.60 ± 1272.17 ng/g"
same,"Concentration, liver","[1]; CSS,target = 6000 ng/mL",1881.97 ± 267.48 ng/g
same,"Concentration, lung","[1]; CSS,target = 6000 ng/mL",1480.52 ± 464.64 ng/g
same,"Concentration, muscle","[1]; CSS,target = 6000 ng/mL",621.78 ± 419.81 ng/g
same,"Concentration, prostate","[1]; CSS,target = 6000 ng/mL",8550.82 ± 7322.84 ng/g
same,"Concentration, small intestine","[1]; CSS,target = 6000 ng/mL",1636.21 ± 1273.92 ng/g
same,"Concentration, spleen","[1]; CSS,target = 6000 ng/mL",932.03 ± 368.50 ng/g
same,"Concentration, stomach","[1]; CSS,target = 6000 ng/mL",612.39 ± 161.18 ng/g
same,"Concentration, testis","[1]; CSS,target = 6000 ng/mL",877.83 ± 252.52 ng/g
same,"Tissue to plasma coefficient (KP), fat","[1]; CSS,target = 6000 ng/mL",0.07 ± 0.02
same,"Tissue to plasma coefficient (KP), heart","[1]; CSS,target = 6000 ng/mL",0.13 ± 0.08
same,"Tissue to plasma coefficient (KP), kidney","[1]; CSS,target = 6000 ng/mL",2.61 ± 0.47
same,"Tissue to plasma coefficient (KP), liver","[1]; CSS,target = 6000 ng/mL",0.34 ± 0.05
same,"Tissue to plasma coefficient (KP), lung","[1]; CSS,target = 6000 ng/mL",0.26 ± 0.09
same,"Tissue to plasma coefficient (KP), muscle","[1]; CSS,target = 6000 ng/mL",0.11 ± 0.07
same,"Tissue to plasma coefficient (KP), prostate","[1]; CSS,target = 6000 ng/mL",1.54 ± 1.33
same,"Tissue to plasma coefficient (KP), small intestine","[1]; CSS,target = 6000 ng/mL",0.29 ± 0.23
same,"Tissue to plasma coefficient (KP), spleen","[1]; CSS,target = 6000 ng/mL",0.17 ± 0.08
same,"Tissue to plasma coefficient (KP), stomach","[1]; CSS,target = 6000 ng/mL",0.11 ± 0.04
same,"Tissue to plasma coefficient (KP), testis","[1]; CSS,target = 6000 ng/mL",0.15 ± 0.04
same,"Concentration, plasma","[1]; CSS,target = 6000 ng/mL, LD 1.20 mg/kg, infusion 3.65 mg/h/kg",5713.2 ± 523.23 ng/mL
same,plasma concentration at steady state,"[1]; LD 0.60 mg/kg, infusion rate 1.82 mg/h/kg","approximately 3,000 ng/mL"
same,plasma concentration at steady state,"[1]; LD 1.20 mg/kg, infusion rate 3.65 mg/h/kg","~6,000 ng/mL"
same,detection in the brain,[1]; steady state after i.v. infusion,not detected
same,"average KP, kidneys",[1]; [3],2.58
same,"average KP, prostate",[1]; [3],1.20
same,"average KP, other tissues","[1]; steady state, tissues other than kidneys and prostate",less than 0.34
same,detection in the plasma,[2]; after 4 h of i.v. injection,not detected
same,clearance (CL),[2]; from the i.v. injection study,10.126 mL/min/kg
same,AUCall,[2]; i.v. injection 1 mg/kg,1841.19 ± 266.36 ng·h/mL
same,AUCinf,[2]; i.v. injection 1 mg/kg,1857.48 ± 270.08 ng·h/mL
same,C0,[2]; i.v. injection 1 mg/kg,9267.42 ± 2673.59 ng/mL
same,CL,[2]; i.v. injection 1 mg/kg,9.13 ± 1.30 mL/min/kg
same,MRT,[2]; i.v. injection 1 mg/kg,20.4 ± 1.2 min
same,VSS,[2]; i.v. injection 1 mg/kg,0.19 ± 0.03 L/kg
same,Vz,[2]; i.v. injection 1 mg/kg,0.25 ± 0.03 L/kg
same,t1/2,[2]; i.v. injection 1 mg/kg,19.2 ± 1.2 min
same,AUCall,[2]; i.v. injection 2 mg/kg,3029.00 ± 350.80 ng·h/mL
same,AUCinf,[2]; i.v. injection 2 mg/kg,3047.45 ± 346.00 ng·h/mL
same,C0,[2]; i.v. injection 2 mg/kg,"14,960.22 ± 3104.40 ng/mL"
same,CL,[2]; i.v. injection 2 mg/kg,11.04 ± 1.15 mL/min/kg
same,MRT,[2]; i.v. injection 2 mg/kg,19.2 ± 1.8 min
same,VSS,[2]; i.v. injection 2 mg/kg,0.21 ± 0.04 L/kg
same,Vz,[2]; i.v. injection 2 mg/kg,0.29 ± 0.05 L/kg
same,t1/2,[2]; i.v. injection 2 mg/kg,18 ± 1.8 min
same,AUCall,[2]; i.v. injection 5 mg/kg,8038.10 ± 1055.28 ng·h/mL
same,AUCinf,[2]; i.v. injection 5 mg/kg,8076.44 ± 1063.99 ng·h/mL
same,C0,[2]; i.v. injection 5 mg/kg,"46,720.92 ± 13,829.91 ng/mL"
same,CL,[2]; i.v. injection 5 mg/kg,10.46 ± 1.30 mL/min/kg
same,MRT,[2]; i.v. injection 5 mg/kg,19.2 ± 1.2 min
same,VSS,[2]; i.v. injection 5 mg/kg,0.20 ± 0.03 L/kg
same,Vz,[2]; i.v. injection 5 mg/kg,0.30 ± 0.09 L/kg
same,t1/2,[2]; i.v. injection 5 mg/kg,19.8 ± 5.4 min
same,average CL,[2]; [4],10.13 mL/min/kg
same,average volume of distribution (Vss),[2]; [4],0.20 L/kg
